Reference: patent US20040142944A1, “Compositions for nasal application” (priority 2001, published 2004)
Entries after “also recorded” stand apart in the source; their conditions may differ.

Assay: nasal administration of cGMP PDE inhibitors with added local anaesthetic
Type: in vivo

OCc1ccccc1 [benzyl alcohol]
local irritation of the nasal mucosa: led to local irritation of the nasal mucosa | ability to reduce or prevent the disadvantages occurring on nasal administration of cGMP PDE inhibitors (unpleasant nasal condition, eye-watering, increased nasal airway resistance, nasal blockage) (added to cGMP PDE inhibitor): unable to reduce or prevent the disadvantages; also recorded: unsuitable for overcoming the disadvantages
